Data as given in US10597388B2, “Pyridazinone herbicides” (FMC CORPORATION, priority 2014, dated 2020).

Experiments:
Assay in all cases: Test D controlled growth environment herbicide test, pre- and postemergence
Format in all cases: in vivo
[1] = tested on: windgrass (Apera spica-venti)
Outline: (§1)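 Pre-emergence: seeds sown in silt loam soil were sprayed with compound in a non-phytotoxic solvent mix containing surfactant. Post-emergence: plants at 2 to 18 cm (1- to 4-leaf stage) in peat moss/vermiculite medium got the same formulation. Visual 0–100 rating versus controls after 14 to 21 d.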

[2] = tested on: chickweed (common chickweed, Stellaria media)
Outline: as §1

[3] = tested on: mustard, wild (wild mustard, Sinapis arvensis)
Outline: as §1

[4] = tested on: barley, winter (winter barley, Hordeum vulgare)
Outline: as §1

[5] = tested on: wheat, winter (winter wheat, Triticum aestivum)
Outline: as §1

[6] = tested on: canarygrass (Phalaris minor)
Outline: as §1

[7] = tested on: ryegrass, Italian (Italian ryegrass, Lolium multiflorum)
Outline: as §1

[8] = tested on: barley, spring (spring barley, Hordeum vulgare)
Outline: as §1

[9] = tested on: bluegrass (annual bluegrass, Poa annua)
Outline: as §1

[10] = tested on: radish, wild (wild radish, Raphanus raphanistrum)
Outline: as §1

[11] = tested on: deadnettle (henbit deadnettle, Lamium amplexicaule)
Outline: as §1

[12] = tested on: field poppy (Papaver rhoeas)
Outline: as §1

[13] = tested on: foxtail, green (green foxtail, Setaria viridis)
Outline: as §1

[14] = Postemergence, 31 g ai/ha, scale 0 to 100 (0 no effect, 100 complete control)
[15] = Postemergence, 125 g ai/ha, visual rating on scale 0 (no effect) to 100 (complete control), 14 to 21 d
[16] = Postemergence, 250 g ai/ha, scale 0 to 100 (0 no effect, 100 complete control)
[17] = Preemergence, 62 g ai/ha, scale 0 to 100 (0 no effect, 100 complete control)
[18] = Preemergence, 125 g ai/ha, scale 0 to 100 (0 no effect, 100 complete control)
[19] = Preemergence, 250 g ai/ha, scale 0 to 100 (0 no effect, 100 complete control)
[20] = postemergence, 62 g ai/ha, scale 0 to 100, 0 no effect, 100 complete control

Compound: Cc1ccc(-c2c(O)c(Br)nn(C)c2=O)c2ccccc12 [Compound 52]
- Windgrass plant response rating [1, 14]: 0
- Plant response rating, Windgrass [1, 15]: 5
- Plant response rating, Windgrass [1, 16]: 5
- Plant response rating (scale of 0 to 100), Windgrass ([1]; Preemergence, 31 g ai/ha): 10
- Plant response rating, Windgrass [1, 17]: 10
- Plant response rating, Windgrass [1, 18]: 10
- Plant response rating, Windgrass [1, 19]: 10
- Plant response rating, Windgrass [1, 20]: 5
- Chickweed plant response rating [2, 14]: 90
- Plant response rating, Chickweed [2, 15]: 90
- Plant response rating, Chickweed [2, 16]: 100
- Plant response rating (scale of 0 to 100), Chickweed ([2]; Preemergence, 31 g ai/ha): 98
- Plant response rating, Chickweed [2, 17]: 98
- Plant response rating, Chickweed [2, 18]: 100
- Plant response rating, Chickweed [2, 19]: 100
- Plant response rating, Chickweed [2, 20]: 100
- Mustard, Wild plant response rating [3, 14]: 20
- Plant response rating, Mustard, Wild [3, 15]: 90
- Plant response rating, Mustard, Wild [3, 16]: 100
- Plant response rating (scale of 0 to 100), Mustard, Wild ([3]; Preemergence, 31 g ai/ha): 85
- Plant response rating, Mustard, Wild [3, 17]: 100
- Plant response rating, Mustard, Wild [3, 18]: 90
- Plant response rating, Mustard, Wild [3, 19]: 98
- Plant response rating, Mustard, Wild [3, 20]: 75
- Barley, Winter plant response rating [4, 14]: 0
- Plant response rating, Barley, Winter [4, 15]: 0
- Plant response rating, Barley, Winter [4, 16]: 0
- Plant response rating (scale of 0 to 100), Barley, Winter ([4]; Preemergence, 31 g ai/ha): 0
- Plant response rating, Barley, Winter [4, 17]: 0
- Plant response rating, Barley, Winter [4, 18]: 0
- Plant response rating, Barley, Winter [4, 19]: 0
- Plant response rating, Barley, Winter [4, 20]: 0
- Wheat, Winter plant response rating [5, 14]: 0
- Plant response rating, Wheat, Winter [5, 15]: 15
- Plant response rating, Wheat, Winter [5, 16]: 15
- Plant response rating (scale of 0 to 100), Wheat, Winter ([5]; Preemergence, 31 g ai/ha): 0
- Plant response rating, Wheat, Winter [5, 17]: 0
- Plant response rating, Wheat, Winter [5, 18]: 0
- Plant response rating, Wheat, Winter [5, 19]: 0
- Plant response rating, Wheat, Winter [5, 20]: 10
- Canarygrass plant response rating [6, 14]: 0
- Plant response rating, Canarygrass [6, 15]: 0
- Plant response rating, Canarygrass [6, 16]: 0
- Plant response rating (scale of 0 to 100), Canarygrass ([6]; Preemergence, 31 g ai/ha): 20
- Plant response rating, Canarygrass [6, 17]: 25
- Plant response rating, Canarygrass [6, 18]: 25
- Plant response rating, Canarygrass [6, 19]: 35
- Plant response rating, Canarygrass [6, 20]: 0
- Ryegrass, Italian plant response rating [7, 14]: 40
- Plant response rating, Ryegrass, Italian [7, 15]: 75
- Plant response rating, Ryegrass, Italian [7, 16]: 80
- Plant response rating (scale of 0 to 100), Ryegrass, Italian ([7]; Preemergence, 31 g ai/ha): 85
- Plant response rating, Ryegrass, Italian [7, 17]: 85
- Plant response rating, Ryegrass, Italian [7, 18]: 100
- Plant response rating, Ryegrass, Italian [7, 19]: 98
- Plant response rating, Ryegrass, Italian [7, 20]: 50
- Barley, Spring plant response rating [8, 14]: 0
- Plant response rating, Barley, Spring [8, 15]: 5
- Plant response rating, Barley, Spring [8, 16]: 0
- Plant response rating (scale of 0 to 100), Barley, Spring ([8]; Preemergence, 31 g ai/ha): 0
- Plant response rating, Barley, Spring [8, 17]: 0
- Plant response rating, Barley, Spring [8, 18]: 0
- Plant response rating, Barley, Spring [8, 19]: 0
- Plant response rating, Barley, Spring [8, 20]: 0
- Bluegrass plant response rating [9, 14]: 5
- Plant response rating, Bluegrass [9, 15]: 30
- Plant response rating, Bluegrass [9, 16]: 30
- Plant response rating (scale of 0 to 100), Bluegrass ([9]; Preemergence, 31 g ai/ha): 0
- Plant response rating, Bluegrass [9, 17]: 10
- Plant response rating, Bluegrass [9, 18]: 25
- Plant response rating, Bluegrass [9, 19]: 35
- Plant response rating, Bluegrass [9, 20]: 5
- Radish, Wild plant response rating [10, 14]: 35
- Plant response rating, Radish, Wild [10, 15]: 80
- Plant response rating, Radish, Wild [10, 16]: 85
- Plant response rating (scale of 0 to 100), Radish, Wild ([10]; Preemergence, 31 g ai/ha): 0
- Plant response rating, Radish, Wild [10, 17]: 15
- Plant response rating, Radish, Wild [10, 18]: 55
- Plant response rating, Radish, Wild [10, 19]: 75
- Plant response rating, Radish, Wild [10, 20]: 65
- Deadnettle plant response rating [11, 14]: 35
- Plant response rating, Deadnettle [11, 15]: 35
- Plant response rating, Deadnettle [11, 16]: 35
- Plant response rating (scale of 0 to 100), Deadnettle ([11]; Preemergence, 31 g ai/ha): 0
- Plant response rating, Deadnettle [11, 17]: 0
- Plant response rating, Deadnettle [11, 18]: 10
- Plant response rating, Deadnettle [11, 19]: 25
- Plant response rating, Deadnettle [11, 20]: 25
- Field Poppy plant response rating [12, 14]: 85
- Plant response rating, Field Poppy [12, 15]: 90
- Plant response rating, Field Poppy [12, 16]: 100
- Plant response rating (scale of 0 to 100), Field Poppy ([12]; Preemergence, 31 g ai/ha): 0
- Plant response rating, Field Poppy [12, 17]: 0
- Plant response rating, Field Poppy [12, 18]: 100
- Plant response rating, Field Poppy [12, 19]: 100
- Plant response rating, Field Poppy [12, 20]: 80
- Foxtail, Green plant response rating [13, 14]: 5
- Plant response rating, Foxtail, Green [13, 15]: 10
- Plant response rating, Foxtail, Green [13, 16]: 40
- Plant response rating (scale of 0 to 100), Foxtail, Green ([13]; Preemergence, 31 g ai/ha): 0
- Plant response rating, Foxtail, Green [13, 17]: 0
- Plant response rating, Foxtail, Green [13, 18]: 15
- Plant response rating, Foxtail, Green [13, 19]: 35
- Plant response rating, Foxtail, Green [13, 20]: 5
